# Assay results: patent publication US8063225B2, “Tricyclic compound derivatives useful in the treatment of neoplastic diseases, inflammatory disorders and immunomodulatory disorders” (Chembridge Corporation, priority 2006, dated 2011)
# Legend:
# InsR = target: T1, InsR (Homo sapiens, UniProt P06213); test: Tyrosine kinase assay (Kinase-Glo or AlphaScreen), InsR; conditions: biochemical tyrosine kinase assay
# T1 construct: 6×His- or GST-tagged kinase domain fragments of the corresponding RTKs expressed in baculovirus system; host or cells: baculovirus system
# Outline: (§1)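 Phosphorylation of poly(Glu-Tyr) by baculovirus-made kinase domains, 10 μM ATP, measured either as ATP depletion (Kinase-Glo, 37° C, 1 h) or phosphotyrosine AlphaScreen (room temperature, 30 min plus 60 min with beads).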
# Alk = target: T2, Alk (Homo sapiens, UniProt Q9UM73); test: Tyrosine kinase assay (Kinase-Glo or AlphaScreen), Alk; conditions: biochemical tyrosine kinase assay
# T2 construct: 6×His- or GST-tagged kinase domain fragments of the corresponding RTKs expressed in baculovirus system; host or cells: baculovirus system
# Outline: as §1
# Jak2 = target: T3, Jak2 (Homo sapiens, UniProt O60674); test: Tyrosine kinase assay (Kinase-Glo or AlphaScreen), Jak2; conditions: biochemical tyrosine kinase assay
# T3 construct: 6×His- or GST-tagged kinase domain fragments of the corresponding RTKs expressed in baculovirus system; host or cells: baculovirus system
# Outline: as §1
# Ba/F3 = test: Cell proliferation inhibition, Cell Titer-Glo, Ba/F3; assay type: cell-based; conditions: Mus musculus, BaF3; cell proliferation assay, Ba/F3 cells
# Outline: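 This standard 3-day proliferation assay used Ba/F3 cells plated in 384-well white plates with clear bottoms at 2500-5000 cells per well and treated with compound dilutions. Viable cell number was determined by mixing in Cell Titer-Glo developing reagent according to the manufacturer's protocol and counting luminescence. Percent viability relative to day 0 and untreated wells produced IC50 curves.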
# Karpas-299 = test: Cell proliferation inhibition, Cell Titer-Glo, Karpas-299; assay type: cell-based; conditions: Homo sapiens; cell proliferation assay, Karpas-299 cells
# Outline: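 In this standard 3-day proliferation assay, Karpas 299 cells plated at 2500-5000 cells per well in 384-well white, clear-bottomed plates were treated with compound dilutions. Cell Titer-Glo developing reagent was added following the manufacturer's protocol, luminescence reflecting ATP content was read on a multiwell plate reader, and IC50 curves were generated.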
# H929 (multiple myeloma) = test: Cell proliferation inhibition, Cell Titer-Glo, H929; assay type: cell-based; conditions: Homo sapiens, NCI-H929; cell proliferation assay, H929 cells
# Outline: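 Cells seeded at 2500-5000 per well with serially diluted compound for typically 3 days. Viable cells measured by ATP luminescence (Cell Titer-Glo); IC50 from proliferation-inhibition curves.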
# K562 = test: Cell proliferation inhibition, Cell Titer-Glo, K562; assay type: cell-based; conditions: Homo sapiens; cell proliferation assay, K562 cells
# Outline: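 Proliferation inhibition in human K562 cells was assessed in a standard 3-day assay. Cells (2500-5000 per well) in 384-well white, clear-bottomed plates received serial compound dilutions, then Cell Titer-Glo reagent was added per the manufacturer's protocol. Luminescence reflecting ATP content of metabolically active cells was counted in a multiwell reader, and IC50 curves were generated.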
# T3 sequence (O60674 849-1124 limits assumed, species assumed): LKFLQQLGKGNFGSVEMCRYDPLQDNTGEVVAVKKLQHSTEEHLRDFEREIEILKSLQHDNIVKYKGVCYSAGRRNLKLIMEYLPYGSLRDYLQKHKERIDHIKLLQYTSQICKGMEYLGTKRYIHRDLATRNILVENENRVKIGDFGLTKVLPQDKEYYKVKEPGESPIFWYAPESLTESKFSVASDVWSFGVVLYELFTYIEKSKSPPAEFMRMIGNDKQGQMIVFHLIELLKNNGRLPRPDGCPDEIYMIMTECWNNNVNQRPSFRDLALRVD
# T1 sequence (P06213 1023-1298 limits assumed, species assumed): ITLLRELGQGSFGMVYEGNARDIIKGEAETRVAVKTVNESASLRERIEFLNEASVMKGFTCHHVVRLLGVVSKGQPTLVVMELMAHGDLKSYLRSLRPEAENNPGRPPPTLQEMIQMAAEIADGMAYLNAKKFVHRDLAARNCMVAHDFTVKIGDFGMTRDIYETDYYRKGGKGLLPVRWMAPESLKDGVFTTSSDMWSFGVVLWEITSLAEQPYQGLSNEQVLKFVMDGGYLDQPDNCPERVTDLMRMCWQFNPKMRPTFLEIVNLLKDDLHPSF
# T2 sequence (Q9UM73 1116-1392 limits assumed, species assumed): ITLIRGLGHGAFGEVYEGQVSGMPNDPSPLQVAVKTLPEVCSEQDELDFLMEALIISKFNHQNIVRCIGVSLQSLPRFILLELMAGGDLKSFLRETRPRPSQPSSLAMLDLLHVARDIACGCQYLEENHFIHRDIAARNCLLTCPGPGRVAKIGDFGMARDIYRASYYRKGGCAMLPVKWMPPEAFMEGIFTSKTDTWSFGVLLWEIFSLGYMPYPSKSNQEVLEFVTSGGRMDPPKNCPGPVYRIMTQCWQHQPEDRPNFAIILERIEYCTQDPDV
SMILES,IC50 (InsR),IC50 (Alk),IC50 (Jak2),IC50 (Ba/F3),IC50 (Karpas-299),IC50 (H929 (multiple myeloma)),IC50 (K562)
Cc1cc(C)c(OC[C@H](O)CNc2cc[nH]c(=O)c2-c2nc3cc4c(cc3[nH]2)C(=O)N(C2CCN(C)CC2)C4=O)cc1Cl [compound 108],0.5 to 5 µM,0.5 to 5 µM,0.5 to 5 µM,> 15 µM,5 to 15 µM,–,–
CN1CCC(N2C(=O)c3cc4nc(-c5c(NC[C@@H](O)COc6c(F)ccc(Cl)c6F)cc[nH]c5=O)[nH]c4cc3C2=O)CC1 [compound 95],< 0.5 µM,0.5 to 5 µM,0.5 to 5 µM,> 15 µM,5 to 15 µM,5 to 15 µM,5 to 15 µM
COc1cccc(OCC(O)CNc2cc[nH]c(=O)c2-c2nc3cc4c(cc3[nH]2)C(=O)N(C2CCN(C)CC2)C4=O)c1 (stereo not drawn) [compound 6],0.5 to 5 µM,0.5 to 5 µM,0.5 to 5 µM,–,–,5 to 15 µM,–
CN1CCC(N2C(=O)c3cc4nc(-c5c(NC[C@@H](O)COc6cccc7ccccc67)cc[nH]c5=O)[nH]c4cc3C2=O)CC1 [compound 87],< 0.5 µM,0.5 to 5 µM,0.5 to 5 µM,> 15 µM,5 to 15 µM,5 to 15 µM,5 to 15 µM
CCN1CCC(N2C(=O)c3cc4nc(-c5c(NC[C@@H](O)COc6ccc(C)cc6C)cc[nH]c5=O)[nH]c4cc3C2=O)CC1 [compound 143],0.5 to 5 µM,< 0.5 µM,0.5 to 5 µM,–,–,5 to 15 µM,–
Cc1ccc(OC[C@@H](O)CNc2cc[nH]c(=O)c2-c2nc3cc4c(cc3[nH]2)C(=O)N([C@@H]2CCN(C)C2)C4=O)c(C)c1 [compound 107],< 0.5 µM,0.5 to 5 µM,0.5 to 5 µM,> 15 µM,> 15 µM,5 to 15 µM,> 15 µM
Cc1c(Cl)cccc1OC[C@H](O)CNc1cc[nH]c(=O)c1-c1nc2cc3c(cc2[nH]1)C(=O)N(C1CCN(C)CC1)C3=O [compound 94],< 0.5 µM,0.5 to 5 µM,0.5 to 5 µM,> 15 µM,> 15 µM,5 to 15 µM,> 15 µM
O=C1c2cc3nc(-c4c(NC[C@@H](O)c5cccc(Cl)c5)cc[nH]c4=O)[nH]c3cc2C(=O)N1[C@@H]1CN2CCC1CC2 [compound 33],< 0.5 µM,0.5 to 5 µM,0.5 to 5 µM,> 15 µM,> 15 µM,–,0.5 to 5 µM
CCc1cc(C)ccc1OC[C@H](O)CNc1cc[nH]c(=O)c1-c1nc2cc3c(cc2[nH]1)CN(C1CCN(C)CC1)C3=O [compound 141],< 0.5 µM,0.5 to 5 µM,< 0.5 µM,–,–,< 0.5 µM,> 15 µM
C[C@H](O)CN1C(=O)c2cc3nc(-c4c(NC[C@@H](O)c5cccc(Cl)c5)cc[nH]c4=O)[nH]c3cc2C1=O [compound 31],0.5 to 5 µM,> 15 µM,5 to 15 µM,> 15 µM,> 15 µM,0.5 to 5 µM,5 to 15 µM
CN1CCC(N2C(=O)c3cc4nc(-c5c(NC[C@@H](O)COc6cccc(C(F)(F)F)c6)cc[nH]c5=O)[nH]c4cc3C2=O)CC1 [compound 97],0.5 to 5 µM,5 to 15 µM,0.5 to 5 µM,> 15 µM,> 15 µM,5 to 15 µM,> 15 µM
Cc1ccc(OC[C@H](O)CNc2cc[nH]c(=O)c2-c2nc3c(C)c4c(cc3[nH]2)C(=O)N(C2CCN(C)CC2)C4=O)c(C)c1 [compound 110],< 0.5 µM,0.5 to 5 µM,0.5 to 5 µM,5 to 15 µM,0.5 to 5 µM,5 to 15 µM,5 to 15 µM
Cc1ccc(OC[C@H](O)CNc2cc[nH]c(=O)c2-c2nc3cc4c(c(C)c3[nH]2)CN(C2CCN(C)CC2)C4=O)c(C)c1 [compound 132],< 0.5 µM,0.5 to 5 µM,< 0.5 µM,–,–,< 0.5 µM,> 15 µM
Cc1cc(C)c(OC[C@H](O)CNc2cc[nH]c(=O)c2-c2nc3cc4c(cc3[nH]2)C(=O)N(C2CCN(C)CC2)C4=O)c(C)c1 [compound 98],< 0.5 µM,0.5 to 5 µM,5 to 15 µM,> 15 µM,> 15 µM,5 to 15 µM,> 15 µM
CN1CCC(N2C(=O)c3cc4nc(-c5c(N[C@H](CO)Cc6c[nH]cn6)cc[nH]c5=O)[nH]c4cc3C2=O)CC1 [compound 2],> 15 µM,> 15 µM,> 15 µM,> 15 µM,5 to 15 µM,–,5 to 15 µM
Cc1ccc(OC[C@H](O)CNc2cc[nH]c(=O)c2-c2nc3cc4c(cc3[nH]2)C(=O)N(C2CCN(C)CC2)C4=O)cc1Cl [compound 99],0.5 to 5 µM,5 to 15 µM,0.5 to 5 µM,> 15 µM,> 15 µM,–,> 15 µM
Cc1ccc(OC[C@H](O)CNc2cc[nH]c(=O)c2-c2nc3cc4c(cc3[nH]2)CN(C2CCN(C)CC2)C4=O)c(C)c1 [compound 130],< 0.5 µM,0.5 to 5 µM,< 0.5 µM,–,–,0.5 to 5 µM,> 15 µM
CN1CCC(N2C(=O)c3cc4nc(-c5c(NC[C@@H](O)c6cccc(Cl)c6)cc[nH]c5=O)[nH]c4cc3C2=O)CC1 [compound 1],< 0.5 µM,0.5 to 5 µM,0.5 to 5 µM,–,–,0.5 to 5 µM,5 to 15 µM
Cc1ccc(OC[C@H](O)CNc2cc[nH]c(=O)c2-c2nc3c(C)c4c(cc3[nH]2)CN(C2CCN(C)CC2)C4=O)c(C)c1 [compound 140],< 0.5 µM,0.5 to 5 µM,< 0.5 µM,–,–,< 0.5 µM,5 to 15 µM
CCN1CCC(N2Cc3cc4nc(-c5c(NC[C@@H](O)COc6ccc(C)cc6C)cc[nH]c5=O)[nH]c4cc3C2=O)CC1 [compound 144],0.5 to 5 µM,< 0.5 µM,< 0.5 µM,–,–,0.5 to 5 µM,> 15 µM
O=C1c2cc3nc(-c4c(NC[C@@H](O)c5cccc(Cl)c5)cc[nH]c4=O)[nH]c3cc2C(=O)N1C[C@@H]1CCCO1 [compound 29],> 15 µM,> 15 µM,> 15 µM,5 to 15 µM,5 to 15 µM,–,0.5 to 5 µM
O=C1c2cc3nc(-c4c(NC[C@@H](O)c5cccc(Cl)c5)cc[nH]c4=O)[nH]c3cc2C(=O)N1CCc1ccncc1 [compound 28],5 to 15 µM,5 to 15 µM,5 to 15 µM,> 15 µM,> 15 µM,–,> 15 µM
Cc1ccc(Cl)c(C)c1OC[C@H](O)CNc1cc[nH]c(=O)c1-c1nc2cc3c(cc2[nH]1)C(=O)N(C1CCN(C)CC1)C3=O [compound 111],0.5 to 5 µM,0.5 to 5 µM,0.5 to 5 µM,5 to 15 µM,0.5 to 5 µM,–,> 15 µM
Cc1ccc(OC[C@@H](O)CNc2cc[nH]c(=O)c2-c2nc3cc4c(cc3[nH]2)C(=O)N(C2CCN(C)CC2)C4=O)c(C)c1 [compound 64],0.5 to 5 µM,5 to 15 µM,0.5 to 5 µM,5 to 15 µM,> 15 µM,–,5 to 15 µM
Cc1ccc(OC[C@H](O)CNc2cc[nH]c(=O)c2-c2nc3cc4c(cc3[nH]2)C(=O)N(C2CCNCC2)C4=O)c(C)c1 [compound 142],< 0.5 µM,0.5 to 5 µM,0.5 to 5 µM,–,–,–,5 to 15 µM
Cc1ccc(OC[C@H](O)CNc2cc[nH]c(=O)c2-c2nc3c(C)c4c(cc3[nH]2)C(=O)N(C2CCN(C)CC2)C4)c(C)c1 [compound 139],< 0.5 µM,0.5 to 5 µM,0.5 to 5 µM,–,–,0.5 to 5 µM,> 15 µM
CC(C)(CO)CN1C(=O)c2cc3nc(-c4c(NC[C@@H](O)c5cccc(Cl)c5)cc[nH]c4=O)[nH]c3cc2C1=O [compound 26],5 to 15 µM,> 15 µM,0.5 to 5 µM,–,–,–,5 to 15 µM
Cc1cc(C)n(C[C@H](O)CNc2cc[nH]c(=O)c2-c2nc3cc4c(cc3[nH]2)C(=O)N(C2CCN(C)CC2)C4=O)n1 [compound 92],5 to 15 µM,> 15 µM,5 to 15 µM,> 15 µM,> 15 µM,–,> 15 µM
Cc1ccc(OCC(O)CNc2cc[nH]c(=O)c2-c2nc3cc4c(cc3[nH]2)C(=O)N(C2CCN(C)CC2)C4=O)c(C)c1 (stereo not drawn) [compound 15],< 0.5 µM,5 to 15 µM,0.5 to 5 µM,–,–,0.5 to 5 µM,0.5 to 5 µM
